Here are results for one compound from patent US10526343B2, “Heterocyclic systems and pharmaceutical applications thereof” (University of Sharjah, priority 2018, dated 2020).

The subject of assay [1] is Staphylococcus aureus (ATCC 25923). Briefly: Cell viability assay (resazurin) screening for antibacterial activity. It is filed as cell-based. To be noted: single high concentration of 1 mg/mL.
The subject of assay [2] is Enterococcus faecalis (ATCC 29212). The assay is described as above. Format: cell-based. On the set-up: key: Positive: A positive result indicates antibacterial activity expressed as growth inhibition; Negative: a negative result indicates no antibacterial activity expressed as bacterial growth at the tested concentration. To be noted: single high concentration of 1 mg/mL.

Assay [3] concerns Bacillus subtilis (environmental isolate). Described as above. Format: cell-based. On the set-up: key: Positive: A positive result indicates antibacterial activity expressed as growth inhibition; Negative: a negative result indicates no antibacterial activity expressed as bacterial growth at the tested concentration. The note with it: single high concentration of 1 mg/mL.
For assay [4], the system named is Pseudomonas aeruginosa (ATCC 27853). Described as above. It is filed as cell-based. On the set-up: key: Positive: A positive result indicates antibacterial activity expressed as growth inhibition; Negative: a negative result indicates no antibacterial activity expressed as bacterial growth at the tested concentration. To be noted: single high concentration of 1 mg/mL.

In assay [5] the test system is MRSA-1 (clinical isolate, methicillin-resistant Staphylococcus aureus). Briefly: MIC by broth microdilution. Format: cell-based. The method in brief:
(§1)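 CLSI broth microdilution in Mueller-Hinton broth, two-fold series from 100 to 0.78 μg/mL, incubated 20 h at 37 °C. CellTiter-Blue then added for 4 h at 37 °C. MIC is the lowest concentration preventing the blue-to-pink color change, i.e. no bacterial growth.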

Assay [6] concerns MRSA-2 (clinical isolate, methicillin-resistant Staphylococcus aureus). The assay can be described thus: MIC by broth microdilution. It is filed as cell-based. The procedure, abridged: as §1
The test system of assay [7] is MRSA-3 (clinical isolate, methicillin-resistant Staphylococcus aureus). The assay can be described thus: MIC by broth microdilution. Format: cell-based. The method in brief:
as §1

Assay [8] relates to MRSA-1. Briefly: Time-kill study. Format: cell-based, Staphylococcus aureus. The procedure: Time-kill study: Compound 1o was tested for the time required to kill the bacterial strain MRSA-1. A time-kill assay was performed by the broth micro-dilution method in accordance with the CLSI guidelines. Inoculum suspensions with approximately 5×10^5 CFU/mL of exponentially growing bacterial cells were incubated in each well of a 96-well plate. […] Aliquots of 20 μL were removed from the inoculum culture after timed intervals of incubation (i.e. 0, 30 minutes, 1, 2, 4, 6, 8, and 24 hours), and serial 10-fold dilutions were prepared in 0.85% sodium chloride solution. Then, 10-100 μL of each dilution (as appropriate) were spread on the surface of Mueller-Hinton agar plates and incubated at 37° C. for 24 hours. Plate count technique was used to determine the number of viable cells for each time point. The experiments were performed in triplicate. Meropenem and ciprofloxacin were used as quality control antibiotics.

Assay [9] has as its system MRSA-1. The assay can be described thus: Examination of bacterial cell walls by atomic force microscope (AFM). Format: cell-based, Staphylococcus aureus. The note with it: MRSA-1, 25 μg/mL, 4 hours. The procedure: Atomic force microscopy (AFM) provides three-dimensional images of the surfaces of living microbial cells in real time and in high resolution with minimal sample preparation. Compound 1o was tested against the bacterial strain MRSA-1 and the slides were examined under AFM. Specifically, FIGS. 5A1 and 5B1 show an untreated MRSA-1 strain at scan sizes of 10 μm^2 and […], respectively, and FIGS. 5A2 and 5B2 show a MRSA-1 strain treated with compound 1o at scan sizes of 10 μm^2 and 5 μm^2, respectively. […] Rapid bacterial killing coupled with cell wall damage as evidenced in the AFM images indicate the action of compound 1o on the cell wall, as reported for the known antibiotics like polymyxin, which rapidly breaks the cell membrane of Gram-negative bacteria, causing fast cell death.
Compound 1o was tested against the bacterial strain MRSA-1. Exponentially growing bacterial cells were prepared in Mueller-Hinton broth at a concentration of approximately 10^8 CFU/mL by adjusting the turbidity to 0.5 with a McFarland™ densitometer (DEN-1B, Grant-Bio, UK). […]

On to `COC(=O)CC1COc2c(cc3c4c2CCCN4CCC3)-c2c(NC(C)(C)C)n3c(-c4ccc(Br)cc4)c(C)sc3[n+]21` (centres unmarked) [Compound 1o], for which the “antibacterial activity, Staphylococcus aureus” value in [1] was “positive antibacterial activities”. Besides, the “antibacterial activity, Enterococcus faecalis” value in [2] is “Positive”. For the same compound, the “antibacterial activity, Bacillus subtilis” value in [3] is reported as “Positive”. The “antibacterial activity, Pseudomonas aeruginosa” value in [4] is recorded as “Negative”. Further, the “times lower than the MIC of ciprofloxacin” value in [5] (MRSA-1) is on record as “approximately 10 times”. Also, the MIC in assay [5] (Staphylococcus aureus, MRSA, clinical isolate) is 3.12 µg/mL; in assay [6], 3.12 µg/mL; in [7], 3.12 µg/mL. In addition, the “time of exposure at which killing was achieved” value amounted to 6 h in the assay on MRSA-1 [8] (12.5 μg/mL), 2 h with MRSA-1 [8] (25 μg/mL), 24 h in the assay on MRSA-1 [8] (3.125-6.25 μg/mL) and 0.5 h with MRSA-1 [8] (concentrations between 50-100 μg/mL). In addition, the “time of exposure to complete elimination of MRSA growth” value in the assay with MRSA-1 [8] (concentration ≥50 μg/mL) was at most 30 min. Also, the “bacterial cell morphology under AFM” value in the assay with MRSA-1 [9] was “Bacterial cell shape distortion and leakage of the intracellular contents”.
